Values quoted from earlier work in patent US20090114566A1, “METHOD OF UPGRADING HEAVY HYDROCARBON STREAMS TO JET PRODUCTS” (Chevron U.S.A. Inc., priority 2007, published 2009).
Like-named read-outs stand apart in the source and are kept apart here.

Tested on: rats

Structure (SMILES) | LD50 (rat, in vivo, po) [mg/kg] | LD50 (single oral dose to rats) [mg/kg]
CCOCC(=O)O [ethoxy-acetic acid] | 1292 | –
O=C(O)/C=C/C(=O)O [fumaric acid] | 10700 | –
O=C(O)[C@H](O)[C@@H](O)[C@H](O)[C@H](O)CO [gluconic acid] | – | 10380
O=CC(=O)O [glyoxylic, glyoxylic acid] | 3000 | –
CC(O)C(=O)O (stereo not drawn) [lactic acid] | – | 3543
O=C(O)CC(O)C(=O)O (stereo not drawn) [malic acid] | – | 1600
O=C(O)CC(S)C(=O)O (stereo not drawn) [mercapto-succinic acid] | 800 | –
COCC(=O)O [methoxy-acetic acid] | 3200 | –
O=C(O)CCC(=O)O [succinic acid] | 500 | –
